From publication PMC8509773, “3-Pyridinylidene Derivatives of Chemically Modified Lupane and Ursane Triterpenes as Promising Anticancer Agents by Targeting Apoptosis” (International Journal of Molecular Sciences, 2021)

How the values were obtained:
Test in all cases: NCI-60 SRB screening (one-dose and five-dose)
Format in all cases: cell-based, human
CAKI-1 = settings: CAKI-1, 10 μM, 48 h
Description: (§1) The compounds were added at a single concentration and the cell cultures were incubated for 48 h. The end point determinations were made with a protein binding dye, sulforhodamine B (SRB). […] The percentage of growth was evaluated spectrophotometrically versus controls not treated with test agents after 48-h exposure and using SRB protein assay to estimate cell viability or growth. […] Furthermore, mean graph midpoints (MG_MID) were calculated for each of the parameters, giving an average activity parameter over all cell lines for the tested compound. For the MG_MID calculation, insensitive cell lines were included with the highest concentration tested.

CCRF-CEM = settings: 10 μM, 48 h
Description: as §1

HL-60(TB) = settings: 10 μM, 48 h
Description: as §1

OVCAR-3 = settings: OVCAR-3, 10 μM, 48 h
Description: as §1

SK-MEL-28 = settings: SK-MEL-28, 10 μM, 48 h
Description: as §1

HOP-92 = settings: HOP-92, 10 μM, 48 h
Description: as §1

COLO 205 = settings: COLO 205, 10 μM, 48 h
Description: as §1

LOX IMVI = settings: 10 μM, 48 h
Description: as §1

MDA-MB-435 = settings: MDA-MB-435, 10 μM, 48 h
Description: as §1

NCI-H23 = settings: NCI-H23, 10 μM, 48 h
Description: as §1

SF-268 = settings: SF-268, 10 μM, 48 h
Description: as §1

HCT-15 = settings: HCT-15, 10 μM, 48 h
Description: as §1

BT-549 = settings: BT-549, 10 μM, 48 h
Description: as §1

K-562 = settings: K-562, 10 μM, 48 h
Description: as §1

SK-MEL-2 = settings: SK-MEL-2, 10 μM, 48 h
Description: as §1

SNB-19 = settings: SNB-19, 10 μM, 48 h
Description: as §1

HOP-62 = settings: HOP-62, 10 μM, 48 h
Description: as §1

TK-10 = settings: TK-10, 10 μM, 48 h
Description: as §1

SK-MEL-5 = settings: SK-MEL-5, 10 μM, 48 h
Description: as §1

M14 = settings: M14, 10 μM, 48 h
Description: as §1

UO-31 = settings: UO-31, 10 μM, 48 h
Description: as §1

SNB-75 = settings: SNB-75, 10 μM, 48 h
Description: as §1

MDA-MB-468 = settings: MDA-MB-468, 10 μM, 48 h
Description: as §1

SF-295 = settings: SF-295, 10 μM, 48 h
Description: as §1

OVCAR-5 = settings: OVCAR-5, 10 μM, 48 h
Description: as §1

NCI-H322M = settings: 10 μM, 48 h
Description: as §1

MOLT-4 = settings: MOLT-4, 10 μM, 48 h
Description: as §1

NCI-H460 = settings: NCI-H460, 10 μM, 48 h
Description: as §1

SK-OV-3 = settings: SK-OV-3, 10 μM, 48 h
Description: as §1

A498 = settings: A498, 10 μM, 48 h
Description: as §1

RXF 393 = settings: RXF 393, 10 μM, 48 h
Description: as §1

NCI-H226 = settings: NCI-H226, 10 μM, 48 h
Description: as §1

HT29 = settings: HT29, 10 μM, 48 h
Description: as §1

RPMI-8226 = settings: RPMI-8226, 10 μM, 48 h
Description: as §1

EKVX = settings: 10 μM, 48 h
Description: as §1

DU-145 = settings: DU-145, 10 μM, 48 h
Description: as §1

OVCAR-8 = settings: OVCAR-8, 10 μM, 48 h
Description: as §1

HCC-2998 = settings: HCC-2998, 10 μM, 48 h
Description: as §1

SR = settings: 10 μM, 48 h
Description: as §1

Structure (SMILES) | Growth Percent (CAKI-1) [%] | Growth Percent (CCRF-CEM) [%] | Growth Percent (OVCAR-3) [%] | Growth Percent (SK-MEL-28) [%] | Growth Percent (HOP-92) [%] | Growth Percent (COLO 205) [%] | Growth Percent (MDA-MB-435) [%] | Growth Percent (NCI-H23) [%] | Growth Percent (SF-268) [%] | Growth Percent (HCT-15) [%] | Growth Percent (SK-MEL-2) [%] | Growth Percent (SNB-19) [%] | Growth Percent (HOP-62) [%] | Growth Percent (TK-10) [%] | Growth Percent (SK-MEL-5) [%] | Growth Percent (M14) [%] | Growth Percent (UO-31) [%] | Growth Percent (SNB-75) [%] | Growth Percent (MDA-MB-468) [%] | Growth Percent (SF-295) [%] | other results
C[C@H]1[C@@H]2[C@H]3CC[C@@H]4[C@@]5(C)CC[C@H](O)C(C)(C)[C@@H]5CC[C@@]4(C)[C@]3(C)CC[C@]23CO[C@@]1(C)C(C(=O)/C=C/c1cccnc1)C3 (some centres unmarked) [Compound 4] | 55.59 | 30.84 | 46.73 | 66.23 | 79.10 | 56.27 | 34.50 | 59.51 | 81.93 | 38.53 | 87.32 | 71.61 | 81.73 | 31.89 | 37.02 | 60.79 | 58.69 | 72.76 | 20.53 | 79.88 | Growth Percent (HL-60(TB)): 47.50%; Growth Percent (LOX IMVI): 51.47%; Growth Percent (BT-549): 57.24%; Growth Percent (K-562): 17.96%; Growth Percent (OVCAR-5): 120.62%; Growth Percent (NCI-H322M): 88.41%; Growth Percent (MOLT-4): 25.21%; Growth Percent (NCI-H460): 40.71%; Growth Percent (SK-OV-3): 77.76%; Growth Percent (A498): 72.89%; Growth Percent (RXF 393): 75.20%; Growth Percent (NCI-H226): 76.56%; Growth Percent (HT29): 99.49%; Growth Percent (RPMI-8226): 9.55%; Growth Percent (EKVX): 101.00%; Growth Percent (DU-145): 73.94%; Growth Percent (OVCAR-8): 35.05%; Growth Percent (HCC-2998): 69.92%
COC(=O)[C@]12CC[C@@H](C(C)=O)[C@@H]1[C@H]1CC[C@@H]3[C@@]4(C)C/C(=C\c5cccnc5)C(=O)C(C)(C)[C@@H]4CC[C@@]3(C)[C@]1(C)CC2 [Compound 8, Methyl 3,20-dioxo-2-(3-pyridinylidene)-29-nor-lup-28-oate] | 51.03 | 7.57 | 49.04 | 31.54 | 66.73 | 82.53 | 72.63 | 53.20 | 68.63 | 23.22 | 68.06 | 67.72 | 102.96 | 132.71 | 39.76 | 56.69 | 56.64 | 110.35 | 55.75 | 75.30 | Growth Percent (HL-60(TB)): −2.67%; Growth Percent (BT-549): 46.03%; Growth Percent (K-562): 18.29%; Growth Percent (SR): 12.35%; Growth Percent (OVCAR-5): 114.28%; Growth Percent (NCI-H322M): 93.90%; Growth Percent (MOLT-4): 5.47%; Growth Percent (NCI-H460): 70.90%; Growth Percent (SK-OV-3): 93.73%; Growth Percent (A498): 80.56%; Growth Percent (RXF 393): 30.89%; Growth Percent (NCI-H226): 48.05%; Growth Percent (HT29): 16.53%; Growth Percent (RPMI-8226): 2.88%; Growth Percent (EKVX): 85.77%; Growth Percent (DU-145): 68.80%; Growth Percent (OVCAR-8): 38.71%; Growth Percent (HCC-2998): 75.76%
C[C@H]1[C@@H]2[C@H]3CC[C@@H]4[C@@]5(C)CC[C@H](O)C(C)(C)[C@@H]5CC[C@@]4(C)[C@]3(C)CC[C@]23CO[C@@]1(C)[C@@H](C(=O)/C=C/c1ccco1)C3 [Compound 5, 3β-Hydroxy-21-[3-(2E-furyl)-prop-2-en-1-one]-20β,28-epoxy-18α,19βH-ursane] | 55.81 | 100.63 | 102.55 | 36.66 | 65.36 | −2.30 | 17.83 | 98.55 | 96.31 | 105.61 | 9.51 | 75.34 | 104.25 | 97.40 | 8.55 | 34.35 | 77.02 | 78.39 | 19.35 | 109.70 | Growth Percent (LOX IMVI): 89.02%; Growth Percent (BT-549): 104.50%; Growth Percent (OVCAR-5): 102.21%; Growth Percent (NCI-H322M): 88.29%; Growth Percent (NCI-H460): 109.09%; Growth Percent (SK-OV-3): 102.58%; Growth Percent (A498): 96.19%; Growth Percent (RXF 393): 109.55%; Growth Percent (NCI-H226): 99.66%; Growth Percent (HT29): 98.06%; Growth Percent (RPMI-8226): 105.93%; Growth Percent (EKVX): 104.96%; Growth Percent (DU-145): 102.22%; Growth Percent (OVCAR-8): 99.33%; Growth Percent (HCC-2998): 104.00%
CC(=O)[C@H]1C[C@]23CC[C@]4(C)[C@H](CC[C@@H]5[C@@]6(C)CCC(=O)C(C)(C)[C@@H]6CC[C@]54C)[C@H]2[C@H](C)[C@@]1(C)OC3 [Compound 2, 3-oxo-21β-acetyl-20β,28-epoxy-18α,19βH-ursane] | 66.38 | 104.98 | 119.38 | 109.33 | 95.88 | 111.81 | 100.67 | 90.60 | 90.95 | 111.38 | 105.22 | 98.03 | 80.72 | 76.40 | 100.12 | 107.08 | 66.99 | 72.80 | 108.53 | 99.35 | Growth Percent (HL-60(TB)): 133.26%; Growth Percent (LOX IMVI): 94.48%; Growth Percent (K-562): 103.93%; Growth Percent (SR): 92.32%; Growth Percent (OVCAR-5): 96.55%; Growth Percent (NCI-H322M): 106.71%; Growth Percent (MOLT-4): 100.88%; Growth Percent (NCI-H460): 94.87%; Growth Percent (SK-OV-3): 118.18%; Growth Percent (A498): 67.96%; Growth Percent (RXF 393): 76.40%; Growth Percent (NCI-H226): 95.16%; Growth Percent (HT29): 108.96%; Growth Percent (RPMI-8226): 102.14%; Growth Percent (EKVX): 71.73%; Growth Percent (DU-145): 98.96%; Growth Percent (OVCAR-8): 104.68%; Growth Percent (HCC-2998): 109.84%
